Source: patent publication US7605166B2, “Methods and compositions for treating rheumatoid arthritis” (Elan Pharmaceuticals Inc., priority 2003, dated 2009)

Legend:
AIA Rats = assay: Adjuvant-induced arthritis (AIA) in Lewis rats: paw swelling, erythema, histology; type: in vivo, rat
rat CIA model = assay: Rat CIA model: paw swelling, erythema, histology; type: in vivo; details: rat CIA, 30, 10, 3 mg/kg b.i.d.; FIG. 6
Method: Anti alpha-4 antibodies, and the compounds of Formulae W and Y were tested in the rat CIA model according to the methods shown in Table 14 below.
(§1) The results in FIG. 6 show the results for compounds. There were 8 rats per group in the efficacy study. Paw swelling and erythema were measured daily and the tarsal paws collected for histological analysis at the end of the study. Plasma which was heparinized was collected at 12 hours (i.e., the trough level) and at 4 horus after the last dose for compound measurement (FIG. 6).

[1] = Plasma compound levels in AIA rats (4 and 12 hours); type: in vivo, rat; details: 12 hours after dosing, all concentrations tested (30, 10, 3 mg/kg)
[2] = system: murine collagen-induced arthritis (CIA) model; assay: Murine collagen-induced arthritis (CIA) model: clinical scores; type: in vivo, mouse; details: therapeutic CIA model, DBA/1LacJ mice, 100 mg/kg b.i.d.
Method: A murine collagen-induced arthritis (CIA) model was used to examine the pharmacological effect of anti-alpha4-integrin antibodies prophylactically, semi-therapeutically and therapeutically. Dosing of the antibody was begun on day 20 for the prophylactic animals. […] The results seen with the treatment of the CIA mice is seen in FIG. 1.
Peripheral blood leucocytes (PBLs) from mice treated with anti-alpha4, anti-α4β7 and anti-VCAM 1 antibodies were collected at 4, 12 and 24 hours after antibody dosing. Cells were stained with goat anti-rat antibodies to confirm antibodies in circulation.
The effect of the compound of Formula P was evaluated in a therapeutica CIA model. […] 100 DBA/1LacJ male mice, ages 6-8 weeks were obtained from Jackson Laboratories. The mice were immunized at Day 0 as follows: 100 μg bovine type II collagen (Chondrex) in Complete Freund's adjuvant (CFA, Sigma) were injected into the mice. At Day 21, another 100 μg bovine type II collagen (Chondrex) in Incomplete Freund's Adjuvant (IFA, Sigma) was injected into the mice. Treatment with the compound began when the animals had the disease (i.e., 100% therapeutic).
The mice are scored daily after the boost. […] Treatment continued for 3 weeks of dosing. Dosing was every other day for the antibody group and control group. […]

[3] = Blood levels of compound in CIA rats (12 hours trough); type: in vivo, rat; details: at 12 hours, all concentrations tested
Method: as §1

levels of the compound relative to receptor saturation [1] | blood levels of the compound relative to receptor saturation [3] | Structure (SMILES) | clinical and histological scores (AIA Rats; AIA model, 30 mg/kg b.i.d.) | disease severity (AIA Rats; Example F, 3 mg/kg s.c. b.i.d.) | disease severity (rat CIA model) | disease (AIA Rats; Example F, all concentrations tested (30, 10, 3 mg/kg p.o. b.i.d.), FIG. 5) | disease progression [2]
 |  | CC(C)OC(=O)[C@H](Cc1ccc(OC(=O)N2CCN(C)CC2)cc1)NC(=O)[C@H]1N(S(=O)(=O)c2cccnc2)CSC1(C)C [Formula N, N-[N-(3-pyridinesulfonyl)-L-3,3-dimethyl-4-thiaprolyl]-O-[1-methylpiperazin-4-ylcarbonyl]-L-tyrosine isopropyl ester] | ameliorate clinical and histological scores | no effect on disease severity | neither the compound of Formula N nor Y had any impact on disease severity |  | 
above receptor saturation | above receptor saturation | CCN(CC)c1ncc(N(CC)S(=O)(=O)c2ccc(Cl)cc2)c(NC(Cc2ccc(OC(=O)N3CCCC3)cc2)C(=O)O)n1 (stereo not shown) [Formula P] |  |  |  | ameliorate disease | no effect on disease progression
